In general, IC50 refers to the concentration that gives 50% inhibition.

Calls of active or inactive are those of the source.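 Rule for the calls: active = cell killing, with a fitted active concentration at or below twice the top valid dose tested; inconclusive = flat partial cell loss, or a poor curve fit; inactive = effect in the rising direction, plus the rest.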

These results are taken from PubChem BioAssay AID743483 (Broad Institute, 2014).

One assay relates to A549 viability, CellTiter-Glo ATP luminescence, 72 h. In words: A549 lung cell viability reduction – CellTiter-Glo luminescence, dry powder, cytotoxicity control, dose response (AID 743483).
Details: not given
(In general: ATP-based viability assays read luminescence as a measure of living cells.)
Turning to `COc1ccc(S(=O)(=O)N(C)C[C@@H]2OCCCC[C@H](C)Oc3ccc(NS(=O)(=O)c4ccc(Cl)cc4)cc3C(=O)N([C@@H](C)CO)C[C@@H]2C)cc1`, the IC50 is 22.1 µM.
For the molecule `C[C@H]1CCCCO[C@@H](CN(C)S(=O)(=O)c2ccc(Cl)cc2)[C@@H](C)CN([C@@H](C)CO)C(=O)c2cc(NC(=O)NC3CCCCC3)ccc2O1`, the IC50 was 19.1 µM.
For `C[C@@H]1CN([C@H](C)CO)C(=O)c2cc(NC(=O)C3CCCCC3)ccc2O[C@@H](C)CCCCO[C@H]1CN(C)C(=O)Nc1cccc2ccccc12`, the 50% inhibitory concentration (IC50) was 21.8 µM.
On to `C[C@@H]1CN([C@@H](C)CO)C(=O)c2cc(NC(=O)C3CCCCC3)ccc2O[C@@H](C)CCCCO[C@H]1CN(C)C(=O)Nc1cccc2ccccc12`, for which the half-maximal inhibitory concentration (IC50) was 6.41 µM.

System in a further assay: not listed separately
The description is as above. The following applies: A549 viability, CellTiter-Glo ATP luminescence, 72 h; at 12 µM (top of the series).
On to `C[C@H](CO)N1C[C@H](C)[C@H](CN(C)C(=O)Nc2ccc(F)cc2)OCCCC[C@H](C)Oc2ccc(NC(=O)C3CCCC3)cc2C1=O`, for which the activity change, negative = cytotoxicity was 12.9% (inactive).
For `C[C@H](CO)N1C[C@H](C)[C@H](CN(C)C(=O)Nc2ccccc2)OCCCC[C@H](C)Oc2ccc(NC(=O)CCC(F)(F)F)cc2C1=O`, the activity change, negative = cytotoxicity was 12.7% (inactive).

Still in this assay, the particulars now being: A549 viability, CellTiter-Glo ATP luminescence, 72 h; at 26 µM (top of the series).
Regarding `C[C@H]1CCCCO[C@@H](CN(C)C(=O)Nc2ccc3c(c2)OCO3)[C@@H](C)CN([C@@H](C)CO)C(=O)c2cc(NC(=O)NC3CCCCC3)ccc2O1`, the activity change, negative = cytotoxicity was -15% (inactive).
For the molecule `COc1ccc(NC(=O)N(C)C[C@@H]2OCCCC[C@H](C)Oc3ccc(NC(=O)NC4CCCCC4)cc3C(=O)N([C@H](C)CO)C[C@@H]2C)cc1`, the activity change, negative = cytotoxicity was 3.04% (inactive).
With `C[C@H](CO)N1C[C@H](C)[C@H](CN(C)C(=O)Nc2ccc(F)cc2)OCCCC[C@H](C)Oc2ccc(NC(=O)C3CCCCC3)cc2C1=O`, the activity change, negative = cytotoxicity is -8.92% (inactive).
On to `C[C@H](CO)N1C[C@H](C)[C@H](CN(C)C(=O)Nc2ccccc2)OCCCC[C@H](C)Oc2ccc(NC(=O)Nc3ccccc3)cc2C1=O`, for which the activity change, negative = cytotoxicity is 3.79% (inactive).
With `C[C@H](CO)N1C[C@H](C)[C@H](CN(C)C(=O)Nc2cccc3ccccc23)OCCCC[C@H](C)Oc2ccc(NC(=O)CCC(F)(F)F)cc2C1=O`, the activity change, negative = cytotoxicity was -6.54% (inactive).
Consider `C[C@H](CO)N1C[C@H](C)[C@H](CN(C)C(=O)Nc2ccc(F)cc2)OCCCC[C@H](C)Oc2ccc(NC(=O)C3CC3)cc2C1=O`, for which the activity change, negative = cytotoxicity is 2.37% (inactive).
The same measure, in the same setting: next, `C[C@H](CO)N1C[C@H](C)[C@@H](CN(C)C(=O)Nc2cccc3ccccc23)OCCCC[C@H](C)Oc2ccc(NC(=O)C3CCCCC3)cc2C1=O`: -15.8% (inactive).
With `C[C@@H]1CCCCO[C@@H](CN(C)C(=O)Nc2cccc3ccccc23)[C@H](C)CN([C@@H](C)CO)C(=O)c2cc(NC(=O)C3CCCCC3)ccc2O1`, the activity change, negative = cytotoxicity was -18.7% (inactive).
As for `C[C@H](CO)N1C[C@H](C)[C@H](CN(C)C(=O)Nc2cccc3ccccc23)OCCCC[C@H](C)Oc2ccc(NC(=O)c3ccccc3)cc2C1=O`, the activity change, negative = cytotoxicity was -18.3% (inactive).
In the case of `C[C@@H]1CCCCO[C@H](CN(C)C(=O)Nc2cccc3ccccc23)[C@@H](C)CN([C@@H](C)CO)C(=O)c2cc(NC(=O)C3CCCCC3)ccc2O1`, the activity change, negative = cytotoxicity is -19.7% (inactive).
On to `Cc1ccc(NC(=O)N(C)C[C@@H]2OCCCC[C@H](C)Oc3ccc(NC(=O)C4CCCCC4)cc3C(=O)N([C@H](C)CO)C[C@@H]2C)cc1`, for which the activity change, negative = cytotoxicity was -2.73% (inactive).
With `C[C@H](CO)N1C[C@H](C)[C@H](CN(C)C(=O)Nc2ccc3c(c2)OCO3)OCCCC[C@H](C)Oc2ccc(NC(=O)C3CCCCC3)cc2C1=O`, the activity change, negative = cytotoxicity is -3.37% (inactive).
The same measure, in the same setting: next, `C[C@@H]1CCCCO[C@H](CN(C)C(=O)Nc2cccc3ccccc23)[C@H](C)CN([C@@H](C)CO)C(=O)c2cc(NC(=O)C3CCCCC3)ccc2O1`: -22.6% (inactive); `C[C@H](CO)N1C[C@H](C)[C@H](CN(C)C(=O)Nc2ccc3c(c2)OCO3)OCCCC[C@H](C)Oc2ccc(NC(=O)NC3CCCCC3)cc2C1=O`: -4.36% (inactive); `C[C@@H]1CCCCO[C@@H](CN(C)C(=O)Nc2cccc3ccccc23)[C@@H](C)CN([C@H](C)CO)C(=O)c2cc(NC(=O)C3CCCCC3)ccc2O1`: -24.4% (inactive).
Still for that read-out and setting: next, `C[C@H](CO)N1C[C@H](C)[C@H](CN(C)C(=O)Nc2ccccc2)OCCCC[C@H](C)Oc2ccc(NC(=O)Nc3ccc4c(c3)OCO4)cc2C1=O`: -21.2% (inactive); `C[C@@H]1CCCCO[C@@H](CN(C)C(=O)Nc2cccc3ccccc23)[C@H](C)CN([C@H](C)CO)C(=O)c2cc(NC(=O)C3CCCCC3)ccc2O1`: -11.3% (inactive); `C[C@H]1CCCCO[C@@H](CN(C)C(=O)Nc2ccc(F)cc2)[C@@H](C)CN([C@@H](C)CO)C(=O)c2cc(NC(=O)C3CCCCC3)ccc2O1`: -21.4% (inactive).
In the case of `CC(=O)Nc1ccc2c(c1)C(=O)N([C@H](C)CO)C[C@H](C)[C@H](CN(C)C(=O)Nc1ccc(F)cc1)OCCCC[C@H](C)O2`, the activity change, negative = cytotoxicity is -6.53% (inactive).
Consider `COc1ccc(NC(=O)N(C)C[C@@H]2OCCCC[C@H](C)Oc3ccc(NC(=O)C4CCCCC4)cc3C(=O)N([C@H](C)CO)C[C@@H]2C)cc1`, for which the activity change, negative = cytotoxicity was -14.8% (inactive).
Turning to `C[C@H](CO)N1C[C@H](C)[C@H](CN(C)C(=O)Nc2cccc(F)c2)OCCCC[C@H](C)Oc2ccc(NC(=O)C3CCCCC3)cc2C1=O`, the activity change, negative = cytotoxicity was -12.5% (inactive).
Consider `C[C@H](CO)N1C[C@H](C)[C@H](CN(C)C(=O)Nc2ccc3ccccc3c2)OCCCC[C@H](C)Oc2ccc(NC(=O)C3CCCCC3)cc2C1=O`, for which the activity change, negative = cytotoxicity was 2.71% (inactive).
Take `C[C@H](CO)N1C[C@H](C)[C@H](CN(C)C(=O)Nc2ccccc2F)OCCCC[C@H](C)Oc2ccc(NC(=O)C3CCCCC3)cc2C1=O`: the activity change, negative = cytotoxicity is -18.7% (inactive).
`C[C@@H]1CN([C@@H](C)CO)C(=O)c2cc(NC(=O)C3CCCCC3)ccc2O[C@@H](C)CCCCO[C@@H]1CN(C)C(=O)Nc1cccc2ccccc12`: the activity change, negative = cytotoxicity is -22.9% (inactive).
On the same count and under the same terms, then `C[C@H](CO)N1C[C@H](C)[C@H](CN(C)C(=O)Nc2ccc(F)cc2)OCCCC[C@H](C)Oc2ccc(NC(=O)Nc3ccc(F)cc3)cc2C1=O`, with -13.3% (inactive).
For `C[C@H](CO)N1C[C@H](C)[C@H](CN(C)C(=O)Nc2cccc3ccccc23)OCCCC[C@H](C)Oc2ccc(NC(=O)C3CCCCC3)cc2C1=O`, the activity change, negative = cytotoxicity was -19% (inactive).
The same measure, in the same setting: then `C[C@H]1CCCCO[C@@H](CN(C)C(=O)Nc2ccccc2)[C@@H](C)CN([C@@H](C)CO)C(=O)c2cc(NC(=O)NC3CCCCC3)ccc2O1`, with -3.65% (inactive).
As to `C[C@H](CO)N1C[C@H](C)[C@H](CN(C)C(=O)Nc2ccc(F)cc2)OCCCC[C@H](C)Oc2ccc(NC(=O)NC3CCCCC3)cc2C1=O`, the activity change, negative = cytotoxicity was -3.88% (inactive).
On to `C[C@H](CO)N1C[C@H](C)[C@H](CN(C)C(=O)Nc2cccc3ccccc23)OCCCC[C@H](C)Oc2ccc(NC(=O)NC3CCCCC3)cc2C1=O`, for which the activity change, negative = cytotoxicity is -18.8% (inactive).
With `C[C@H](CO)N1C[C@H](C)[C@H](CN(C)C(=O)Nc2ccc(F)cc2)OCCCC[C@H](C)Oc2ccc(NC(=O)C3CCCCCC3)cc2C1=O`, the activity change, negative = cytotoxicity was -13.4% (inactive).
For `C[C@H](CO)N1C[C@H](C)[C@H](CN(C)C(=O)Nc2ccccc2)OCCCC[C@H](C)Oc2ccc(NC(=O)NC3CCCCC3)cc2C1=O`, the activity change, negative = cytotoxicity is -4.06% (inactive).
For the molecule `C[C@H](CO)N1C[C@H](C)[C@H](CN(C)C(=O)Nc2ccc(F)cc2)OCCCC[C@H](C)Oc2ccc(NC(=O)C3CCOCC3)cc2C1=O`, the activity change, negative = cytotoxicity was 4.42% (inactive).
Consider `C[C@H](CO)N1C[C@H](C)[C@H](CN(C)C(=O)Nc2ccc(F)cc2)OCCCC[C@H](C)Oc2ccc(NC(=O)Nc3ccccc3)cc2C1=O`, for which the activity change, negative = cytotoxicity is -4.11% (inactive).
Same read-out and setting: then `C[C@H](CO)N1C[C@H](C)[C@H](CN(C)C(=O)Nc2ccc(C(F)(F)F)cc2)OCCCC[C@H](C)Oc2ccc(NC(=O)NC3CCCCC3)cc2C1=O`, with -9.21% (inactive).
Regarding `C[C@H](CO)N1C[C@H](C)[C@H](CN(C)C(=O)Nc2ccccc2)OCCCC[C@H](C)Oc2ccc(NC(=O)C3CCCCC3)cc2C1=O`, the activity change, negative = cytotoxicity was -8.81% (inactive).
For `CC(C)(C)c1ccc(-c2nc(-c3ccncc3)no2)cc1`, the activity change, negative = cytotoxicity was -8.72% (inactive).
With `C[C@H](CO)N1C[C@H](C)[C@H](CN(C)C(=O)Nc2ccc(F)cc2)OCCCC[C@H](C)Oc2ccc(NC(=O)C3CCC3)cc2C1=O`, the activity change, negative = cytotoxicity is -1.54% (inactive).
On the same count and under the same terms, then `C[C@@H]1CCCCO[C@H](CN(C)C(=O)Nc2cccc3ccccc23)[C@H](C)CN([C@H](C)CO)C(=O)c2cc(NC(=O)C3CCCCC3)ccc2O1`, with -21.8% (inactive).
